From publication PMC4535380, “Overproduction of pro-transglutaminase from Streptomyces hygroscopicus in Yarrowia lipolytica and its biochemical characterization” (BMC Biotechnology, 2015)
Where two headings read alike, the source gives them in different places. Peptide text beside a SMILES is read from it. * marks the point of attachment. Cbz = O=C(OCc1ccccc1)*

Experiments:
Format in all cases: biochemical, Streptomyces hygroscopicus
activated pro-TGase [1] = tested on: T1, activated pro-TGase; test: colorimetric hydroxamate assay at […] nm, Lineweaver-Burk; conditions: hydroxylamine co-substrate (assay b48), 50 mmol/L Tris-HCl pH 6.0; substrate 6-30 mmol/L (below Km); dispase-activated; read-out: N160Q
T1 construct: pro-TGase behind XPR2 pre signal, secreted by Yarrowia lipolytica Po1h (pINA1297), N-glycosylated; no tag mentioned

activated pro-TGase [2] = tested on: T1, activated pro-TGase; test: as above; conditions: hydroxylamine co-substrate (assay b48), 50 mmol/L Tris-HCl pH 6.0; substrate 6-30 mmol/L (below Km); dispase-activated; read-out: N355Q
activated pro-TGase [3] = tested on: T1, activated pro-TGase; test: as above; conditions: hydroxylamine co-substrate (assay b48), 50 mmol/L Tris-HCl pH 6.0; substrate 6-30 mmol/L (below Km); dispase-activated; read-out: N160Q/N355Q
[4] = tested on: T2, NC(=O)CC[C@H](NC(=O)OCc1ccccc1)C(=O)NCC(=O)O; test: purified protein; conditions: hydroxylamine co-substrate (assay b48), 50 mmol/L Tris-HCl pH 6.0, substrate 6-30 mmol/L (below Km), dispase-activated, 37.0 °C
T2 construct: pro-TGase behind XPR2 pre signal, secreted by Yarrowia lipolytica Po1h (pINA1297), N-glycosylated; no tag mentioned

Row | Km (activated pro-TGase [1]) [mM] | Km (activated pro-TGase [2]) [mM] | Km (activated pro-TGase [3]) [mM] | Compound | Km [4] [mM] | kcat [4] [s⁻¹]
1 | 47 ± 1.5 | 54.7 ± 2.1 | 48.4 ± 2.4 | NC(=O)CC[C@H](NC(=O)OCc1ccccc1)C(=O)NCC(=O)O [N-CBZ-Gln-Gly] (Cbz-Gln-Gly-OH) | – | –
2 | – | – | – | activated pro-TGase (wild type) (Streptomyces hygroscopicus) | 59.5 ± 2.3 | 31.5 ± 1.7
